# Measured values from patent publication US11066409B2, “Bicyclic nitrogen-containing heterocyclic derivatives and pharmaceutical composition comprising the same” (Shionogi & Co., Ltd., priority 2016, dated 2021).
# Target: human P2X7 receptor (Homo sapiens (Human), UniProt Q99572, R270H)
# Assay: Evaluation of a human P2X7 receptor inhibitory activity (Yo-Pro uptake, BzATP stimulation, FLIPR TETRA)
# Format: cell-based
# Conditions: 1321N1 cells stably expressing human P2X7 receptor, Yo-Pro fluorescence
# Description: Evaluation of a human P2X7 receptor inhibitory activity Stably expressing cell line (1321N1 cell transfected with the human P2X7 receptor gene (GenBank accession number NM_002562.5 including T606C and G952A SNP)) was used. The cells were seeded in a 384-well microtiter plate at a concentration of 8000 cells/well and cultured in the medium (10% fetal bovine serum, 25 mM HEPES, 1% penicillin and streptomycin in DMEM) for one day at 37° C. under 5% carbon dioxide atmosphere. After replacing with 20 μL of the HBSS buffer (20 mM HEPES, 55.6 mM D-glucose, 1× HBSS(−), pH7.4-7.5), 15 μL of 17.3 μM Yo-Pro solution in the HBSS buffer was added. The plate was placed in high-throughput cellular screening system FLIPR TETRA (Molecullar Devices, LLC.) and 15 μL of 130 μM BzATP solution in the HBSS buffer was added. Measurement of fluorescence intensity by FLIPR TETRA was started. After eight minutes, 15 μL of DMSO solutions containing different concentrations of the compound of the present invention as prepared by dilution with the HBSS buffer were dispensed to each well through the built-in automatic dispenser, and the measurement of fluorescence intensity was continued for 20 minutes. The maximum fluorescence intensity without the compound of the present invention is calculated as 0% inhibition and the maximum fluorescence intensity when the reference compound was added is calculated as 100% inhibition. Changing values of fluorescence intensity by the compound of the present invention were calculated by difference between maximum and minimum fluorescence intensity for 20 minutes. Inhibition ratios (%) were calculated from the following equation:
# [formula] IC50 was calculated using logistic approximation.
# As for IC50 value, value to below 10 nmol/L is represented as “A”, value from 10 nmol/L to below 100 nmol/L is represented as “B”, value from 100 nmol/L to below 500 nmol/L is represented as “C”, and value from 500 nmol/L to below 1 μmol/L is represented as “D”.
# Chain of human P2X7 receptor (Q99572 whole entry R270H): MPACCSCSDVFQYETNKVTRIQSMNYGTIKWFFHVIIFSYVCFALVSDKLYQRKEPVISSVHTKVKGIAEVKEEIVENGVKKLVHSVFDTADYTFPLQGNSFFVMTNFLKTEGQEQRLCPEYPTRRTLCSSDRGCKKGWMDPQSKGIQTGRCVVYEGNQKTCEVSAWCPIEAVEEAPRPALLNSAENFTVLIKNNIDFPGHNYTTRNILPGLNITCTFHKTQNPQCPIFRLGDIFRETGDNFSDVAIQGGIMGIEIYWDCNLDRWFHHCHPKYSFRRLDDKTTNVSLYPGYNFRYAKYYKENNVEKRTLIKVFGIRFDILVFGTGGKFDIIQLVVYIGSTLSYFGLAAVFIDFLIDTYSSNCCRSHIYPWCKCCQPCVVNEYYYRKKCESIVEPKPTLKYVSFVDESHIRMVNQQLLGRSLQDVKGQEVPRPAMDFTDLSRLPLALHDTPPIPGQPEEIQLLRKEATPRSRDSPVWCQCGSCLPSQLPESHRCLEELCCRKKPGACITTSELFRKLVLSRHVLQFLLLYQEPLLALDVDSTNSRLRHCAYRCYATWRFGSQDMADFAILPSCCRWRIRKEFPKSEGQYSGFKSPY
row,Structure (SMILES),IC50
1,CCc1nc(OC)ccc1Nc1nc(=O)cc2n1C(c1cc(F)cc(F)c1)CC2 (stereo not shown) [Compound I-0059],11 nM
2,COc1ccc(/N=c2\[nH]c(=O)c(F)c3n2C(c2ccc(F)cc2)CC3)c(C)n1 (stereo not shown) [Compound I-0069],10 nM
3,C=Cc1c2n(c(Nc3ccc(OC)nc3C)nc1=O)C(c1cc(F)cc(F)c1)CC2 (stereo not shown) [Compound I-0091],17 nM

# Same assay, conditions: 1321N1 cells stably expressing human P2X7 receptor, Yo-Pro fluorescence, class symbols
row,Structure (SMILES),IC50
1,COc1cc(Nc2nc(=O)cc3n2C(c2ccccc2)CC3)c(C)cn1 (stereo not shown) [Compound I-0035],100 to 500 nM
2,COc1c2n(c(Nc3cc4sc(C)nc4cc3C)nc1=O)C(c1ccc(F)cc1)CC2 (stereo not shown) [Compound I-0036],10 to 100 nM
3,COc1ccc(Nc2nc(=O)cc3n2C(c2ccc(F)c(Cl)c2)CC3)c(C)c1 (stereo not shown) [Compound I-0037],< 10 nM
4,COc1ccc(Nc2nc(=O)cc3n2C(c2cc(F)cc(F)c2)CC3)c(C)c1 (stereo not shown) [Compound I-0038],< 10 nM
5,CCc1cc(Nc2nc(=O)cc3n2C(c2ccccc2)CC3)c(C)cc1OC (stereo not shown) [Compound I-0039],< 10 nM
6,Cc1cc2c(cc1Nc1nc(=O)cc3n1C(c1ccccc1)CC3)COC2 (stereo not shown) [Compound I-0040],10 to 100 nM
7,COc1ccc(Nc2nc(=O)cc3n2C(c2ccc(F)c(F)c2)CC3)c(C)c1 (stereo not shown) [Compound I-0041],< 10 nM
8,COc1ccc(Nc2nc(=O)cc3n2C(c2cc(F)c(F)c(F)c2)CC3)c(C)c1 (stereo not shown) [Compound I-0042],< 10 nM
9,COc1nc(C)c(Nc2nc(=O)cc3n2C(c2ccccc2)CC3)cc1C (stereo not shown) [Compound I-0043],< 10 nM
10,COc1cc(Nc2nc(=O)c(OC)c3n2C(c2ccccc2)CC3)c(C)cc1Cl (stereo not shown) [Compound I-0044],10 to 100 nM
11,COc1cc(Nc2nc(=O)c(OC)c3n2C(c2ccccc2)CC3)c(C)cc1F (stereo not shown) [Compound I-0045],10 to 100 nM
12,COc1ccc(Nc2nc(=O)c(F)c3n2C(c2ccccc2)CC3)c(C)c1 (stereo not shown) [Compound I-0046],10 to 100 nM
13,COc1ccc(Nc2nc(=O)cc3n2C(c2cc(F)cc(F)c2)CC3)c(C)n1 (stereo not shown) [Compound I-0047],10 to 100 nM
14,COc1ccc(Nc2nc(=O)cc3n2C(c2cc(F)c(F)c(F)c2)CC3)c(C)n1 (stereo not shown) [Compound I-0048],10 to 100 nM
15,COc1ccc(Nc2nc(=O)cc3n2C(c2cccc(F)c2)CC3)c(C)c1 (stereo not shown) [Compound I-0049],< 10 nM
16,COc1ccc(Nc2nc(=O)cc3n2C(c2cccc(Cl)c2)CC3)c(C)c1 (stereo not shown) [Compound I-0050],< 10 nM
17,COc1nc(C)c(Nc2nc(=O)cc3n2C(c2cc(F)cc(F)c2)CC3)cc1C (stereo not shown) [Compound I-0051],10 to 100 nM
18,COc1ccc(Nc2nc(=O)c(OC)c3n2C(c2ccccc2)CC3)c(C)c1 (stereo not shown) [Compound I-0052],10 to 100 nM
19,Cc1nc2cc(C)c(/N=c3\[nH]c(=O)cc4n3C(c3cc(F)cc(F)c3)CC4)cc2s1 (stereo not shown) [Compound I-0053],10 to 100 nM
20,Cc1nc2cc(C)c(/N=c3\[nH]c(=O)c(F)c4n3C(c3ccc(F)cc3)CC4)cc2s1 (stereo not shown) [Compound I-0054],< 10 nM
21,CCOc1ccc(Nc2nc(=O)cc3n2C(c2cc(F)cc(F)c2)CC3)c(C)n1 (stereo not shown) [Compound I-0055],10 to 100 nM
22,Cc1cc(OC(F)F)ccc1/N=c1\[nH]c(=O)cc2n1C(c1cc(F)cc(F)c1)CC2 (stereo not shown) [Compound I-0056],10 to 100 nM
23,Cc1cc(OC(F)F)ccc1/N=c1\[nH]c(=O)c(F)c2n1C(c1ccc(F)cc1F)CC2 (stereo not shown) [Compound I-0057],10 to 100 nM
24,Cc1nc2cc(C)c(Nc3nc(=O)c(F)c4n3C(c3ccc(F)cc3F)CC4)cc2s1 (stereo not shown) [Compound I-0058],< 10 nM
25,CCc1nc(OC)ccc1Nc1nc(=O)cc2n1C(c1cc(F)cc(F)c1)CC2 (stereo not shown) [Compound I-0059],10 to 100 nM
26,COc1ccc(C)c(/N=c2\[nH]c(=O)cc3n2C(c2cc(F)cc(F)c2)CC3)c1 (stereo not shown) [Compound I-0061],10 to 100 nM
27,COc1cc(/N=c2\[nH]c(=O)c(F)c3n2C(c2ccc(F)cc2F)CC3)c(C)cc1F (stereo not shown) [Compound I-0062],10 to 100 nM
28,COc1cc(/N=c2\[nH]c(=O)cc3n2C(c2cc(F)cc(F)c2)CC3)c(C)cc1F (stereo not shown) [Compound I-0063],10 to 100 nM

row,Structure (SMILES),IC50
1,COc1ccc(Nc2nc(=O)c(F)c3n2C(c2ccc(F)cc2F)CC3)c(C)c1 (stereo not shown) [Compound I-0064],10 to 100 nM
2,Cc1cc(OC(F)F)c(C)cc1/N=c1\[nH]c(=O)cc2n1C(c1ccccc1)CC2 (stereo not shown) [Compound I-0065],< 10 nM
3,Cc1cc2c(cc1Nc1nc(=O)cc3n1C(c1cc(F)cc(F)c1)CC3)COC2 (stereo not shown) [Compound I-0066],< 10 nM
4,Cc1cc2c(cc1Nc1nc(=O)cc3n1C(c1ccc(F)cc1)CC3)COC2 (stereo not shown) [Compound I-0067],< 10 nM
5,COc1ccc(/N=c2\[nH]c(=O)c(F)c3n2C(c2ccc(F)cc2F)CC3)c(C)n1 (stereo not shown) [Compound I-0068],10 to 100 nM
6,COc1ccc(/N=c2\[nH]c(=O)cc3n2C(c2ccc(F)cc2)CC3)c(C)n1 (stereo not shown) [Compound I-0070],10 to 100 nM
7,COc1cnc(C)c(Nc2nc(=O)cc3n2C(c2cc(F)cc(F)c2)CC3)c1 (stereo not shown) [Compound I-0071],10 to 100 nM
8,COc1nc(C)c(Nc2nc(=O)cc3n2C(c2cc(F)cc(F)c2)CC3)cc1F (stereo not shown) [Compound I-0072],10 to 100 nM
9,Cc1cc2c(cc1/N=c1\[nH]c(=O)c(F)c3n1C(c1ccc(F)cc1F)CC3)COC2 (stereo not shown) [Compound I-0073],10 to 100 nM
10,Cc1cc2c(cc1/N=c1\[nH]c(=O)c(F)c3n1C(c1ccc(F)cc1)CC3)COC2 (stereo not shown) [Compound I-0074],< 10 nM
11,CCOc1ccc(/N=c2\[nH]c(=O)cc3n2C(c2ccc(F)cc2F)CC3)c(CC)n1 (stereo not shown) [Compound I-0075],10 to 100 nM
12,CCOc1ccc(/N=c2\[nH]c(=O)c(F)c3n2C(c2ccc(F)cc2F)CC3)c(CC)n1 (stereo not shown) [Compound I-0076],10 to 100 nM
13,Cc1cc(OC(F)F)ccc1Nc1nc(=O)cc2n1C(c1ccc(F)cc1)CC2 (stereo not shown) [Compound I-0077],< 10 nM
14,COc1cnc(C)c(/N=c2\[nH]c(=O)c(F)c3n2C(c2ccc(F)cc2)CC3)c1 (stereo not shown) [Compound I-0078],10 to 100 nM
15,COc1cnc(C)c(/N=c2\[nH]c(=O)cc3n2C(c2ccc(F)cc2)CC3)c1 (stereo not shown) [Compound I-0079],10 to 100 nM
16,CCOc1ccc(/N=c2\[nH]c(=O)c(F)c3n2C(c2ccc(F)cc2)CC3)c(C)n1 (stereo not shown) [Compound I-0080],< 10 nM
17,CCOc1ccc(/N=c2\[nH]c(=O)c(F)c3n2C(c2ccc(F)cc2F)CC3)c(C)n1 (stereo not shown) [Compound I-0081],10 to 100 nM
18,CCOc1nc(C)c(Nc2nc(=O)cc3n2C(c2ccc(F)cc2F)CC3)cc1F (stereo not shown) [Compound I-0082],10 to 100 nM
19,CCOc1nc(C)c(Nc2nc(=O)c(F)c3n2C(c2ccc(F)cc2F)CC3)cc1F (stereo not shown) [Compound I-0083],10 to 100 nM
20,COc1nc(C)c(Nc2nc(=O)cc3n2C(c2ccc(F)cc2F)CC3)cc1F (stereo not shown) [Compound I-0084],10 to 100 nM
21,COc1ccc(Nc2nc(=O)c(Cl)c3n2C(c2cc(F)cc(F)c2)CC3)c(C)n1 (stereo not shown) [Compound I-0085],10 to 100 nM
22,COc1ccc(Nc2nc(=O)c(Br)c3n2C(c2cc(F)cc(F)c2)CC3)c(C)n1 (stereo not shown) [Compound I-0086],10 to 100 nM
23,COc1ccc(Nc2nc(=O)c(C)c3n2C(c2cc(F)cc(F)c2)CC3)c(C)n1 (stereo not shown) [Compound I-0087],10 to 100 nM
24,Cc1[nH]c(=O)c(F)cc1Nc1nc(=O)cc2n1C(c1ccc(F)cc1F)CC2 (stereo not shown) [Compound I-0088],500 to 1000 nM
25,COc1ccc(Nc2nc(=O)c(-c3ccccc3)c3n2C(c2cc(F)cc(F)c2)CC3)c(C)n1 (stereo not shown) [Compound I-0089],10 to 100 nM
26,COc1nc(C)c(Nc2nc(=O)cc3n2C(c2cc(F)c(F)c(F)c2)CC3)cc1F (stereo not shown) [Compound I-0090],10 to 100 nM
27,CCc1c2n(c(Nc3ccc(OC)nc3C)nc1=O)C(c1cc(F)cc(F)c1)CC2 (stereo not shown) [Compound I-0092],10 to 100 nM
